# Assay results as given in patent US20230067378A1, “COMPOSITIONS AND METHODS FOR THE TREATMENT OF ESTROGEN-DEPENDENT DISORDERS” (ObsEva S.A., priority 2018, published 2023).
# Assays:
# progesterone = assay: circulating progesterone concentration, same clinical trial; assay type: in vivo, human; details: both cohorts (Concurrent-ABT and Delayed-ABT), exception of a single outlier subject, FIG. 3B
# Description: The experiments described in this example were conducted as part of a single-center, open-label, randomized, parallel-group clinical trial in 32 pre-menopausal women. Following screening assessments, and during the second half of the menstrual cycle, women received norethindrone (5 mg, three-times daily for 10 days) to synchronize menstrual cycles. […]
# (§1) The main treatment outcomes and endpoints measured during these experiments included (i) a qualitative assessment of uterine blood loss, which was recorded on a daily basis throughout the study by characterizing each subject's bleeding pattern using one of the following four categories: “no bleeding,” “spotting” (light staining, dark blood, no sanitary protection needed or only panty liner), “bleeding” (1-4 completely soiled maxi sanitary towels or 1-8 soiled tampons or equivalent combination of the two), or “heavy bleeding” (>4 completely soiled maxi sanitary towels or >8 soiled tampons or equivalent combination of the two); (ii) a bi-weekly assessment of each subject's circulating E2 concentration; (iii) a bi-weekly assessment of each subject's circulating progesterone concentration (measured using a validated commercial chemiluminescence immunoassay method (Elecsys Progesterone III, Roche, Burgess Hill, UK)); (iv) the pharmacokinetic profile of compound (VI) and the add-back therapy; and (v) adverse events.
# [1] = half-life in a human patient; details: in vivo, also the choline salt (VIa)
# human GnRH receptor = biological target: T1, human GnRH receptor (Homo sapiens, UniProt P30968); assay: affinity for human GnRH receptor; assay type: binding; details: kind of constant not given; also for salts such as the choline salt
# T1 sequence (P30968 1-328): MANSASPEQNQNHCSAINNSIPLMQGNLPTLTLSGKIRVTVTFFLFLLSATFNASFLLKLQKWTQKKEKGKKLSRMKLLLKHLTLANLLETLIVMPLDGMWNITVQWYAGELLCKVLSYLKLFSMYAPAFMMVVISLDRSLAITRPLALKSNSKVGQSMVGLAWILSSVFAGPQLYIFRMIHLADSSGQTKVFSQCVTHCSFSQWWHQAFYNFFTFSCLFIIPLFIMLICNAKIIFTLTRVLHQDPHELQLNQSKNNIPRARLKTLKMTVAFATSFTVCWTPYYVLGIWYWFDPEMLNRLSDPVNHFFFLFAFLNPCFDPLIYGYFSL
# [2] = adverse events, same clinical trial; assay type: in vivo, human
# Description: The experiments described in this example were conducted as part of a single-center, open-label, randomized, parallel-group clinical trial in 32 pre-menopausal women. Following screening assessments, and during the second half of the menstrual cycle, women received norethindrone (5 mg, three-times daily for 10 days) to synchronize menstrual cycles. After menstrual cycle synchronization, subjects were randomized with a 1:1 ratio to one of two treatment arms: (i) a cohort receiving once-daily administration of compound (VI) (200 mg per day, administered in the form of a choline salt) with concurrent onset of add-back therapy administration for 10 weeks (“Concurrent-ABT”), or (ii) a cohort receiving pre-treatment with compound (VI) (200 mg per day, administered in the form of a choline salt) for 4 weeks followed by combined daily administration of compound (VI) and add-back therapy (“Delayed-ABT”). The add-back therapy used in these experiments contained 1.0 mg of E2 and 0.5 mg of norethindrone acetate, and was administered to subjects once daily.
# as §1
# [3] = Days 1-14, treatment A (Concurrent-ABT), N=16
# [4] = Days 1-14, treatment B (Delayed-ABT), N=16
# [5] = Days 15-28, Overall (A+B), N=32
# [6] = Days 15-28, treatment A (Concurrent-ABT), N=16
# [7] = Days 15-28, treatment B (Delayed-ABT), N=16
# [8] = Days 29-42, Overall (A+B), N=29
# [9] = Days 29-42, treatment A (Concurrent-ABT), N=14
# [10] = Days 29-42, treatment B (Delayed-ABT), N=15
# [11] = Days 43-56, Overall (A+B), N=29
# [12] = Days 43-56, treatment A (Concurrent-ABT), N=14
# [13] = Days 43-56, treatment B (Delayed-ABT), N=15
# [14] = Days 57-70, Overall (A+B), N=29
# [15] = Days 57-70, treatment A (Concurrent-ABT), N=14
# [16] = Days 57-70, treatment B (Delayed-ABT), N=15
# [17] = events of all reported adverse events, both cohorts
smiles,measurement,setting,value
"COc1cc(F)c(-n2c(=O)[nH]c3csc(C(=O)O)c3c2=O)cc1OCc1c(OC)ccc(F)c1F [Compound (VI), 3-[2-fluoro-5-(2,3-difluoro-6-methoxybenzyloxy)4-methoxyphenyl]-2,4-dioxo-1,2,3,4-tetrahydrothieno [3,4d]pyrimidine-5-carboxylic acid]",circulating progesterone,progesterone,sustained reduction in circulating progesterone
same,half-life,[1],14 to 15 h
same,Ki,human GnRH receptor,0.0274 µM
same,"hot flushes, cohort of occurrence",[2]; Concurrent-ABT versus Delayed-ABT,exclusively occurred in the “Delayed-ABT” group
same,"Hot Flush, subjects (%), Plasma Estradiol Level 20-50 pg/mL","[2]; Days 1-14, Overall (A+B), N=32",(0.0%)
same,"Hot Flush, subjects (%), Plasma Estradiol Level <20 pg/mL","[2]; Days 1-14, Overall (A+B), N=32",(6.3%)
same,"Hot Flush, subjects (%), Plasma Estradiol Level >50 pg/mL","[2]; Days 1-14, Overall (A+B), N=32",(0.0%)
same,"Hot Flush, subjects (n), Plasma Estradiol Level 20-50 pg/mL","[2]; Days 1-14, Overall (A+B), N=32",0
same,"Hot Flush, subjects (n), Plasma Estradiol Level <20 pg/mL","[2]; Days 1-14, Overall (A+B), N=32",2
same,"Hot Flush, subjects (n), Plasma Estradiol Level >50 pg/mL","[2]; Days 1-14, Overall (A+B), N=32",0
same,"Hot Flush, subjects (%), Plasma Estradiol Level 20-50 pg/mL",[2]; [3],(0.0%)
same,"Hot Flush, subjects (%), Plasma Estradiol Level <20 pg/mL",[2]; [3],(0.0%)
same,"Hot Flush, subjects (%), Plasma Estradiol Level >50 pg/mL",[2]; [3],(0.0%)
same,"Hot Flush, subjects (n), Plasma Estradiol Level 20-50 pg/mL",[2]; [3],0
same,"Hot Flush, subjects (n), Plasma Estradiol Level <20 pg/mL",[2]; [3],0
same,"Hot Flush, subjects (n), Plasma Estradiol Level >50 pg/mL",[2]; [3],0
same,"Hot Flush, subjects (%), Plasma Estradiol Level 20-50 pg/mL",[2]; [4],(0.0%)
same,"Hot Flush, subjects (%), Plasma Estradiol Level <20 pg/mL",[2]; [4],(12.5%)
same,"Hot Flush, subjects (%), Plasma Estradiol Level >50 pg/mL",[2]; [4],(0.0%)
same,"Hot Flush, subjects (n), Plasma Estradiol Level 20-50 pg/mL",[2]; [4],0
same,"Hot Flush, subjects (n), Plasma Estradiol Level <20 pg/mL",[2]; [4],2
same,"Hot Flush, subjects (n), Plasma Estradiol Level >50 pg/mL",[2]; [4],0
same,"Hot Flush, subjects (%), Plasma Estradiol Level 20-50 pg/mL",[2]; [5],(0.0%)
same,"Hot Flush, subjects (%), Plasma Estradiol Level <20 pg/mL",[2]; [5],(12.5%)
same,"Hot Flush, subjects (%), Plasma Estradiol Level >50 pg/mL",[2]; [5],(0.0%)
same,"Hot Flush, subjects (n), Plasma Estradiol Level 20-50 pg/mL",[2]; [5],0
same,"Hot Flush, subjects (n), Plasma Estradiol Level <20 pg/mL",[2]; [5],4
same,"Hot Flush, subjects (n), Plasma Estradiol Level >50 pg/mL",[2]; [5],0
same,"Hot Flush, subjects (%), Plasma Estradiol Level 20-50 pg/mL",[2]; [6],(0.0%)
same,"Hot Flush, subjects (%), Plasma Estradiol Level <20 pg/mL",[2]; [6],(0.0%)
same,"Hot Flush, subjects (%), Plasma Estradiol Level >50 pg/mL",[2]; [6],(0.0%)
same,"Hot Flush, subjects (n), Plasma Estradiol Level 20-50 pg/mL",[2]; [6],0
same,"Hot Flush, subjects (n), Plasma Estradiol Level <20 pg/mL",[2]; [6],0
same,"Hot Flush, subjects (n), Plasma Estradiol Level >50 pg/mL",[2]; [6],0
same,"Hot Flush, subjects (%), Plasma Estradiol Level 20-50 pg/mL",[2]; [7],(0.0%)
same,"Hot Flush, subjects (%), Plasma Estradiol Level <20 pg/mL",[2]; [7],(25.0%)
same,"Hot Flush, subjects (%), Plasma Estradiol Level >50 pg/mL",[2]; [7],(0.0%)
same,"Hot Flush, subjects (n), Plasma Estradiol Level 20-50 pg/mL",[2]; [7],0
same,"Hot Flush, subjects (n), Plasma Estradiol Level <20 pg/mL",[2]; [7],4
same,"Hot Flush, subjects (n), Plasma Estradiol Level >50 pg/mL",[2]; [7],0
same,"Hot Flush, subjects (%), Plasma Estradiol Level 20-50 pg/mL",[2]; [8],(10.3%)
same,"Hot Flush, subjects (%), Plasma Estradiol Level <20 pg/mL",[2]; [8],(6.9%)
same,"Hot Flush, subjects (%), Plasma Estradiol Level >50 pg/mL",[2]; [8],(0.0%)
same,"Hot Flush, subjects (n), Plasma Estradiol Level 20-50 pg/mL",[2]; [8],3
same,"Hot Flush, subjects (n), Plasma Estradiol Level <20 pg/mL",[2]; [8],2
same,"Hot Flush, subjects (n), Plasma Estradiol Level >50 pg/mL",[2]; [8],0
same,"Hot Flush, subjects (%), Plasma Estradiol Level 20-50 pg/mL",[2]; [9],(0.0%)
same,"Hot Flush, subjects (%), Plasma Estradiol Level <20 pg/mL",[2]; [9],(0.0%)
same,"Hot Flush, subjects (%), Plasma Estradiol Level >50 pg/mL",[2]; [9],(0.0%)
same,"Hot Flush, subjects (n), Plasma Estradiol Level 20-50 pg/mL",[2]; [9],0
same,"Hot Flush, subjects (n), Plasma Estradiol Level <20 pg/mL",[2]; [9],0
same,"Hot Flush, subjects (n), Plasma Estradiol Level >50 pg/mL",[2]; [9],0
same,"Hot Flush, subjects (%), Plasma Estradiol Level 20-50 pg/mL",[2]; [10],(20.0%)
same,"Hot Flush, subjects (%), Plasma Estradiol Level <20 pg/mL",[2]; [10],(13.3%)
same,"Hot Flush, subjects (%), Plasma Estradiol Level >50 pg/mL",[2]; [10],(0.0%)
same,"Hot Flush, subjects (n), Plasma Estradiol Level 20-50 pg/mL",[2]; [10],3
same,"Hot Flush, subjects (n), Plasma Estradiol Level <20 pg/mL",[2]; [10],2
same,"Hot Flush, subjects (n), Plasma Estradiol Level >50 pg/mL",[2]; [10],0
same,"Hot Flush, subjects (%), Plasma Estradiol Level 20-50 pg/mL",[2]; [11],(0.0%)
same,"Hot Flush, subjects (%), Plasma Estradiol Level <20 pg/mL",[2]; [11],(3.4%)
same,"Hot Flush, subjects (%), Plasma Estradiol Level >50 pg/mL",[2]; [11],(0.0%)
same,"Hot Flush, subjects (n), Plasma Estradiol Level 20-50 pg/mL",[2]; [11],0
same,"Hot Flush, subjects (n), Plasma Estradiol Level <20 pg/mL",[2]; [11],1
same,"Hot Flush, subjects (n), Plasma Estradiol Level >50 pg/mL",[2]; [11],0
same,"Hot Flush, subjects (%), Plasma Estradiol Level 20-50 pg/mL",[2]; [12],(0.0%)
same,"Hot Flush, subjects (%), Plasma Estradiol Level <20 pg/mL",[2]; [12],(0.0%)
same,"Hot Flush, subjects (%), Plasma Estradiol Level >50 pg/mL",[2]; [12],(0.0%)
same,"Hot Flush, subjects (n), Plasma Estradiol Level 20-50 pg/mL",[2]; [12],0
same,"Hot Flush, subjects (n), Plasma Estradiol Level <20 pg/mL",[2]; [12],0
same,"Hot Flush, subjects (n), Plasma Estradiol Level >50 pg/mL",[2]; [12],0
same,"Hot Flush, subjects (%), Plasma Estradiol Level 20-50 pg/mL",[2]; [13],(0.0%)
same,"Hot Flush, subjects (%), Plasma Estradiol Level <20 pg/mL",[2]; [13],(6.7%)
same,"Hot Flush, subjects (%), Plasma Estradiol Level >50 pg/mL",[2]; [13],(0.0%)
same,"Hot Flush, subjects (n), Plasma Estradiol Level 20-50 pg/mL",[2]; [13],0
same,"Hot Flush, subjects (n), Plasma Estradiol Level <20 pg/mL",[2]; [13],1
same,"Hot Flush, subjects (n), Plasma Estradiol Level >50 pg/mL",[2]; [13],0
same,"Hot Flush, subjects (%), Plasma Estradiol Level 20-50 pg/mL",[2]; [14],(0.0%)
same,"Hot Flush, subjects (%), Plasma Estradiol Level <20 pg/mL",[2]; [14],(0.0%)
same,"Hot Flush, subjects (%), Plasma Estradiol Level >50 pg/mL",[2]; [14],(0.0%)
same,"Hot Flush, subjects (n), Plasma Estradiol Level 20-50 pg/mL",[2]; [14],0
same,"Hot Flush, subjects (n), Plasma Estradiol Level <20 pg/mL",[2]; [14],0
same,"Hot Flush, subjects (n), Plasma Estradiol Level >50 pg/mL",[2]; [14],0
same,"Hot Flush, subjects (%), Plasma Estradiol Level 20-50 pg/mL",[2]; [15],(0.0%)
same,"Hot Flush, subjects (%), Plasma Estradiol Level <20 pg/mL",[2]; [15],(0.0%)
same,"Hot Flush, subjects (%), Plasma Estradiol Level >50 pg/mL",[2]; [15],(0.0%)
same,"Hot Flush, subjects (n), Plasma Estradiol Level 20-50 pg/mL",[2]; [15],0
same,"Hot Flush, subjects (n), Plasma Estradiol Level <20 pg/mL",[2]; [15],0
same,"Hot Flush, subjects (n), Plasma Estradiol Level >50 pg/mL",[2]; [15],0
same,"Hot Flush, subjects (%), Plasma Estradiol Level 20-50 pg/mL",[2]; [16],(0.0%)
same,"Hot Flush, subjects (%), Plasma Estradiol Level <20 pg/mL",[2]; [16],(0.0%)
same,"Hot Flush, subjects (%), Plasma Estradiol Level >50 pg/mL",[2]; [16],(0.0%)
same,"Hot Flush, subjects (n), Plasma Estradiol Level 20-50 pg/mL",[2]; [16],0
same,"Hot Flush, subjects (n), Plasma Estradiol Level <20 pg/mL",[2]; [16],0
same,"Hot Flush, subjects (n), Plasma Estradiol Level >50 pg/mL",[2]; [16],0
same,tolerability,[2]; both cohorts,well-tolerated
same,adverse events: headache,[2]; [17],38/166
same,adverse events: hot flushes,[2]; [17],19/166
